Test results taken from PubChem BioAssay (NCI).
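Where inhibition never reached the appropriate level, the endpoint shown equals the highest concentration tested. Otherwise, values were interpolated linearly from a five-concentration, 48-hour dose response in 96-well plates. GI50 marks 50% less growth. TGI denotes the concentration required for complete inhibition of growth.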

Key:
Experiment in all cases: DTP human tumour cell line panel, 48 h
A498 renal = test system: A498 renal
A549 NSCLC = test system: A549 NSCLC
CAKI-1 renal = test system: CAKI-1 renal
MALME-3M melanoma = test system: MALME-3M melanoma
OVCAR-3 ovarian = test system: OVCAR-3 ovarian
RPMI-8226 leukemia = test system: RPMI-8226 leukemia
SK-MEL-28 melanoma = test system: SK-MEL-28 melanoma
BT-549 breast = test system: BT-549 breast
MCF7 breast = test system: MCF7 breast
MDA-MB-231 breast = test system: MDA-MB-231 breast

| SMILES | TGI (A498 renal) [µM] | TGI (A549 NSCLC) [µM] | TGI (CAKI-1 renal) [µM] | TGI (MALME-3M melanoma) [µM] | TGI (OVCAR-3 ovarian) [µM] | TGI (RPMI-8226 leukemia) [µM] | TGI (SK-MEL-28 melanoma) [µM] | TGI (BT-549 breast) [µM] | TGI (MCF7 breast) [µM] | TGI (MDA-MB-231 breast) [µM] | GI50 (A498 renal) [µM] | GI50 (A549 NSCLC) [µM] | GI50 (BT-549 breast) [µM] | GI50 (CAKI-1 renal) [µM] | GI50 (MALME-3M melanoma) [µM] | GI50 (MCF7 breast) [µM] | GI50 (MDA-MB-231 breast) [µM] | GI50 (OVCAR-3 ovarian) [µM] | GI50 (SK-MEL-28 melanoma) [µM] | GI50 (RPMI-8226 leukemia) [µM] |
| --- | --- | --- | --- | --- | --- | --- | --- | --- | --- | --- | --- | --- | --- | --- | --- | --- | --- | --- | --- | --- |
| CC(CC(=O)Nc1ccc(NC(=O)CC(C)N=NC(N)=O)cc1)N=NC(N)=O (stereo not drawn) | > 100 | > 100 | > 100 | > 100 | > 100 | > 100 | > 100 | – | – | – | – | – | – | – | – | – | – | – | – | – |
| COC1CC(n2cc(F)c(N)nc2=O)OC1CO (stereo not drawn) | – | > 100 | > 100 | > 100 | > 100 | > 100 | > 100 | – | – | – | – | – | – | – | – | – | – | – | – | – |
| Cc1c(C2CCSc3ccccc3N2)sc2ccccc12 (stereo not drawn) | – | > 100 | > 100 | > 100 | > 100 | > 100 | > 100 | > 100 | > 100 | > 100 | – | – | – | – | – | – | – | – | – | – |
| NC1=Nc2ccccc2Sc2ccccc21 | > 100 | > 100 | > 100 | > 100 | > 100 | > 100 | > 100 | – | – | – | – | – | – | – | – | – | – | – | – | – |
| CN(C)C(=S)/N=c1\ss/c(=N\S(=O)(=O)c2ccccc2)n1C | > 100 | > 100 | > 100 | > 100 | – | > 100 | > 100 | – | – | – | – | – | – | – | – | – | – | – | – | – |
| Cc1cc2nc(-c3ccc(O)c(O)c3)n(Cc3ccc(O)c(O)c3)c2cc1C | > 100 | > 100 | 81.1 | > 100 | 77 | – | > 100 | > 100 | 80.7 | 77.3 | 77.2 | 40.2 | 28.9 | 17 | 27.2 | 24.4 | 24.1 | 14.6 | 87.6 | – |
| NC(=O)c1nc(-c2ccc(Cl)c(Cl)c2)nc2ccccc12 | > 100 | > 100 | > 100 | 30 | > 29.4 | > 100 | > 40.9 | – | – | – | – | – | – | – | – | – | – | – | – | – |
| CC(=O)OC1=C(CC(C)(C)C)C(=O)c2ccccc2C1=O | 48.3 | – | > 100 | – | – | 39.1 | > 100 | – | > 100 | > 100 | – | – | – | – | – | – | – | – | – | – |
| CCOc1ccccc1N=Cc1c2ccccc2cc2ccccc12 | > 72.4 | 80.9 | > 92.4 | – | > 67.6 | 56.5 | > 73.5 | 70.1 | > 79.8 | 67.4 | – | – | – | – | – | – | – | – | – | – |
| CCN1CCC(O)(/C=C/c2ccccc2)C(C(=O)/C=C/c2ccccc2)C1 (stereo not drawn) | 18.4 | 16.8 | 6.44 | 5.09 | 8.9 | – | 3.91 | – | – | – | – | – | – | – | – | – | – | – | – | – |
| COC(=O)C(/C(=N\O)C(=O)Nc1ccc(Br)cc1)c1nc2ccccc2[nH]c1=O (stereo not drawn) | > 100 | > 100 | > 100 | > 100 | 50 | 61.6 | > 100 | – | – | – | – | – | – | – | – | – | – | – | – | – |
| N#Cc1cc2c(cc1Cl)SC(=Nc1ccccc1)N(S(=O)(=O)c1ccc(Br)s1)S2(=O)=O | 38 | 66.6 | 33.8 | – | 32 | 67.6 | 44.1 | 32.2 | 39.5 | 42.1 | 21.9 | 24.7 | 17.7 | 17.5 | – | 13.6 | 22.8 | 15.9 | 19.5 | 23.6 |
| CC(=O)/C(=C/N1CCN(C(=O)c2ccco2)C1=S)C(=O)c1ccccc1 | – | 26.9 | 32.5 | 46.7 | > 50 | 18.2 | > 50 | 18.1 | 4.2 | 19.8 | – | 10.8 | 5.54 | 9.29 | 9.28 | 1.25 | 9.46 | 17.2 | 28 | 3.79 |
| C#C[C@@H](CCCC)OC(=O)N[C@H](C)c1ccccc1 | – | > 100 | > 100 | – | > 100 | 87.6 | > 100 | – | – | – | – | – | – | – | – | – | – | – | – | – |
| COC(=O)C(=O)C(C#N)c1c(Cl)cccc1Cl (stereo not drawn) | > 100 | > 100 | > 100 | > 100 | > 100 | > 100 | > 100 | – | – | – | – | – | – | – | – | – | – | – | – | – |
| Nc1ccn(C2CC3OCC3O2)c(=O)n1 (stereo not drawn) | > 100 | > 100 | > 100 | – | > 100 | > 100 | > 100 | > 100 | > 100 | > 100 | – | – | – | – | – | – | – | – | – | – |
| O=[N+]([O-])c1ccc2nc(-c3ccc(Cl)cc3)[nH]c2c1 | – | 70.5 | 93.9 | 63 | 89.3 | 57.4 | > 100 | 64.6 | 62.8 | 81.5 | – | – | – | – | – | – | – | – | – | – |
| CC1=CC(=O)N2C(OC[C@@H]2c2ccccc2)O1 (stereo partly drawn) | – | > 100 | > 100 | > 100 | > 100 | > 100 | > 100 | – | – | – | – | – | – | – | – | – | – | – | – | – |
| Cc1nc(-n2nc(-c3ccccc3)cc2-c2ccccc2)sc1C(=O)/C=C/c1cccc([N+](=O)[O-])c1 | 51.9 | 55.6 | 49.6 | 41.1 | 15.4 | 19.4 | 34.1 | – | – | – | – | – | – | – | – | – | – | – | – | – |
| Cc1cn2cc(-c3ccc4c(c3)CC(=O)N4)nc2s1 | > 100 | > 100 | > 100 | > 100 | > 100 | > 100 | > 100 | > 100 | – | > 100 | > 100 | > 100 | > 100 | > 100 | > 100 | – | > 100 | > 100 | > 100 | 35.9 |
| CC1OC(=O)N2CCC=CC12 (stereo not drawn) | > 100 | > 100 | – | > 100 | > 100 | > 100 | > 100 | – | – | – | – | – | – | – | – | – | – | – | – | – |
| COc1cc([C@@H]2c3cc4c(cc3[C@@H](NCc3cccc(F)c3)C3COC(=O)[C@@H]32)OCO4)cc(OC)c1O (stereo partly drawn) | 13.1 | 10.9 | 51.4 | 21.5 | 30.5 | 19.2 | 45.9 | – | – | – | – | – | – | – | – | – | – | – | – | – |
